Like-named read-outs stand apart in the source and are kept apart here.
Legend:
[1] = tested on: dHL-60 cells; test: Cellular production of HOCl, PMA-activated dHL-60 cells; type: cell-based, human; settings: 20 μM compound, 100 nM PMA, 1 h
Procedure: Human promyelocytic leukemic cells (HL-60) (BCRJ, RJ, Brazil) were cultivated in RPMI with fetal bovine serum (10%), penicillin (62 μg/mL), and streptomycin (100 μg/mL) at 37 °C in 5% CO2 atmosphere. HL-60 cells were differentiated to neutrophil-like (dHL-60) by DMSO (1.25%) during 4 days.[25]
(§1) Measurement of HOCl production by 1 × 10^6 dHL-60 or neutrophils was carried out in PBS (10 mM Na2HPO4, 2 mM KH2PO4, 0.5 mM MgCl2, 1 mM CaCl2, 140 mM NaCl, 5.5 mM dextrose, 100 μM diethylenetriaminepentaacetic acid, 5 mM taurine) in the presence of the compounds (20 μM in 0.3% DMSO) or 0.3% DMSO (control). Cells were activated with phorbol myristate acetate (100 nM) at 37 °C for 1 h. After incubation, cells were centrifuged at 1400 rpm for 10 min, and the supernatant was diluted threefold. Finally, 240 μL of this supernatant was added to 60 μL acetate buffer (400 mM, pH 5.4) containing NaI (100 μM) and TMB (2 mM in DMFO 10%). Taurine chloramine was quantified by TMB oxidation at 655 nm.[33] Inhibition of HOCl production was calculated as the percentage of the control (vehicle).

[2] = biological target: T1, Human leukocyte MPO (Homo sapiens, UniProt P05164); test: MPO chlorinating activity assay (taurine chloramine/TMB); type: biochemical; set-up: Human leukocyte MPO (EC 1.7.1.11) was purchased from Planta Natural Products; purchased Planta Natural Products (Vienna, Austria); host or cells: human leukocytes
Procedure: Chlorinating activity was carried out in phosphate buffer (20 mM, pH 7.4). Compounds (20 μM) were dissolved in 0.03% DMSO, MPO (10 nM), diethylenetriaminepentaacetic acid (100 μM), cetyltrimethylammonium chloride (0.03%), NaCl (140 mM), and taurine (5 mM).[31] This mixture was incubated at 37 °C for 15 min before adding 40 μM hydrogen peroxide. The reaction ran for 8 min and was then stopped by catalase (20 μg/mL). Oxidation of TMB (2 mM) (3,3,5,5-tetramethylbenzidine) by taurine chloroamine catalyzed by iodide (100 μM) was quantified at 650 nm.[33] Results were expressed as a percentage of the control (vehicle). IC50 was calculated by nonlinear regression using the Hill equation present in GraphPad Prism 5 software.

[3] = biological target: T1, Human leukocyte MPO; settings: read-out: previously reported IC50 for MPO; cited from earlier work
[4] = tested on: human neutrophils; test: MSU-induced NETosis assay (sytox green fluorescence microscopy); type: cell-based; settings: 20 μM compound, MSU 250 μg/mL, 90 min
Procedure: NETosis assay was conducted on human neutrophils adhered to lysine-coated glass coverslips as previously reported.[80] After neutrophils’ adhesion, the compounds were diluted in RPMI medium (free of phenol red and fetal bovine serum) at a final concentration of 20 μM (0.15% DMSO) and added to the cells for 15 min at 37 °C in a 5% CO2 atmosphere. Then, MSU crystals (250 μg/mL), known to induce NETosis, were added. After 90 min incubation, the medium was carefully removed, paraformaldehyde was added (500 μL at 4%), and incubated at 4 °C overnight. In the following day, paraformaldehyde was removed, and cells were washed threefold with tris-HCl buffer (20 mM, pH 7.4) and kept into the same buffer at 4 °C. Tris-HCl buffer was carefully removed, and DNA was stained by adding 500 μL SYTOX Green (500 nM diluted in tris-HCl buffer). The system was kept for 30 min at room temperature, protected from light. After staining, the coverslips were mounted over the glass slides using ProLong Diamond Antifade Mountant fixation medium. Fluorescence images were acquired in an Axiovert 200 (Zeiss) fluorescence microscope with a 20x/0.4 objective and Zeiss Filter Set 09, λex = 450–490 nm, λem = above 515 nm. Images were taken by an Axiocam HR R3 camera device.

[5] = tested on: human peripheral blood neutrophils; test: Cellular production of HOCl, PMA-activated peripheral blood neutrophils; type: cell-based; settings: 20 μM compound, 100 nM PMA, 1 h
Procedure: Human neutrophils were obtained from healthy individuals as previously described.[24] The experiments were approved by the local ethics committee (CEPSH-ICB 1435/18).
as §1

[6] = biological target: T1, Human leukocyte MPO; test: MPO peroxidatic activity assay (AmplexRed oxidation); type: biochemical; set-up: Human leukocyte MPO (EC 1.7.1.11) was purchased from Planta Natural Products; purchased Planta Natural Products (Vienna, Austria); host or cells: human leukocytes
Procedure: MPO peroxidase activity was kinetically monitored using the artificial peroxidase substrate AmplexRed, which is oxidized to resorufin and can be detected by fluorescence.[34] Reactions were carried out in phosphate buffer (50 mM, pH 7.4), MPO (100 pM), cetyltrimethylammonium chloride (0.03%), diethylenetriaminepentaacetic acid (100 μM), AmplexRed (30 μM), and compounds (20 μM in 0.3% DMSO). The reaction was started by adding 2 μM hydrogen peroxide. The reaction product was assessed by fluorescence at λex = 530 and λem = 580 nm. The initial velocity was calculated by the slope of the linear regression in the first minutes of reaction. Inhibition is represented as a percentage of the control (vehicle).

[7] = tested on: MSU-induced paw edema; test: MSU-induced paw edema, intraperitoneal treatment; type: in vivo; settings: for reduction of paw edema (time-dependent AUC) vs VEH + MSU: 30 mg/kg i.p.; for effect on paw edema over time: i.p. 30 min before MSU, mefenamic acid 30 mg/kg, RL6 3, 10, 30, RL7 0.3, 3, 30, ZINC9089086 3, 10, 30 mg/kg, 6 h
Procedure: MSU-induced edema was performed as previously described.[22] The compounds were prepared by dilution in a solution containing 0.5% Tween 80 and 5% DMSO and then resuspended in PBS prior to administration. The animals were treated intraperitoneally (i.p.) with the following substances: vehicle (VEH: 5% DMSO; 0.5% Tween 80 in PBS), mefenamic acid (a nonsteroidal anti-inflammatory drug at a dosage of 30 mg/kg), RL6 (at doses of 3, 10, and 30 mg/kg), RL7 (at doses of 0.3, 3, and 30 mg/kg), or ZINC9089086 (at doses of 3, 10, and 30 mg/kg).[31] After 30 min, the mice were anesthetized using inhaled isoflurane (2% v/v in O2). A hypodermic syringe with a 31-gauge needle (BD, Franklin Lakes, NJ, USA) was used to administer the vehicle (VEH: PBS, 30 μL) or MSU (1.5 mg/30 μL) via the intraplantar route (i.pl.), into the right hind paw (Figure 9).
(§2) Paw volume (mL) was measured at various time points, including before injection (baseline, B), […] 1, 2, 3, 4, 5, and 6 h following MSU injection using a plethysmometer (Ugo Basile, Comerio, Italy) (Figure 7). For this, the injected hind paw was immersed into the dipping solution (6 mM NaCl diluted in distilled water and added with 2 mL/L of a wetting compound provided by the manufacturer) until the ankle. The extent of edema was quantified as a change in paw volume (Δ mL) by subtracting the basal paw volume from the volume of the paw measured at each time point. To evaluate the antiedematogenic effect of orally administered MPO inhibitors (p.o.), the animals were fasted for 1 h and then treated with equimolar doses of the following substances: vehicle (VEH: 5% DMSO; 0.5% tween 80 in PBS), mefenamic acid (30 mg/kg), RL 6 (33 mg/kg), RL 7 (54 mg/kg), RL 21 (30 mg/kg), or ZINC9089086 (34 mg/kg). After 1 h, the anesthetized mice (2% isoflurane, v/v in O2) received either the vehicle (PBS, 30 μL, i.pl.) or 1.5 mg/30 μL MSU (i.pl.). The paw volume was evaluated at the same time points as previously described. The percentage of edema inhibition by the compounds was calculated discounting the paw volume of mice that received oral or intraperitoneal vehicle and PBS intraplantar (VEH + VEH).

[8] = tested on: IL-6; test: Paw tissue IL-6 level after MSU (ELISA); type: in vivo, male C57BL/6 mice; settings: intraperitoneal pretreatment (RL6 30 mg/kg), tissue collected at 6 h
Procedure: (§3) The remaining part of the homogenate was treated with a solution of protease/phosphatase inhibitors (1 mM phenylmethylsulfonyl fluoride, 10 μg/mL leupeptin, and 10 μg/mL trypsin inhibitor) and centrifuged at 10,000g (10 min at 4 °C). The obtained supernatants were subjected to 1:2 dilution in PBS and subsequently used for the assessment of IL-1β and IL-6 using murine enzyme-linked immunosorbent assay kits, specifically a sandwich ELISA technique, following manufacturer’s instructions (BioLegend, CA, USA). The protein content within the samples was determined by using the Bradford method (1976). The results were quantified and expressed in pg/mg of protein (Bio-Rad, Hercules, CA, USA).[76]

[9] = tested on: IL-1β; test: Paw tissue IL-1β level after MSU (ELISA); type: in vivo, male C57BL/6 mice; settings: intraperitoneal pretreatment (RL6 30 mg/kg), tissue collected at 6 h
Procedure: as §3

[10] = tested on: MSU-induced paw edema; test: MSU-induced paw edema, oral treatment; type: in vivo, male C57BL/6 mice
Procedure: as §2

[11] = tested on: total peroxidase activity; test: Paw tissue total peroxidase activity after MSU; type: in vivo, male C57BL/6 mice; settings: intraperitoneal pretreatment (RL6 30 mg/kg), tissue collected at 6 h
Procedure: After the assessment of paw edema was completed, the mice were immediately anesthetized by inhalation of 2% isoflurane mixture in oxygen (O2). Subsequently, the surface of the hind paws was collected for the measurement of total peroxidase activity, IL-6, and IL-1β. These tissue samples were then frozen using dry ice and stored at −80 °C until further analysis. The frozen tissues were later pulverized into a fine powder using liquid nitrogen and homogenized in a phosphate buffer (100 mM, pH 7.4). For the analysis of total peroxidase activity, a portion of this homogenate was mixed with hexadecyltrimethylammonium (1% HTAB, pH 6.0), vigorously vortexed, and sonicated. The resulting mixture was then centrifuged at 10,000g for 10 min, at 4 °C, and heated at 60 °C for 2 h. The sample of each supernatant was incubated with a solution containing 50 mM phosphate buffer, 0.164 mg/mL of o-dianisidine dihydrochloride, and H2O2 (0.0005%, pH 6.0). […] Each unit represents the capacity to degrade 1 μmol of H2O2 per minute.[81]

T1 sequence (P05164 279-745 limits assumed): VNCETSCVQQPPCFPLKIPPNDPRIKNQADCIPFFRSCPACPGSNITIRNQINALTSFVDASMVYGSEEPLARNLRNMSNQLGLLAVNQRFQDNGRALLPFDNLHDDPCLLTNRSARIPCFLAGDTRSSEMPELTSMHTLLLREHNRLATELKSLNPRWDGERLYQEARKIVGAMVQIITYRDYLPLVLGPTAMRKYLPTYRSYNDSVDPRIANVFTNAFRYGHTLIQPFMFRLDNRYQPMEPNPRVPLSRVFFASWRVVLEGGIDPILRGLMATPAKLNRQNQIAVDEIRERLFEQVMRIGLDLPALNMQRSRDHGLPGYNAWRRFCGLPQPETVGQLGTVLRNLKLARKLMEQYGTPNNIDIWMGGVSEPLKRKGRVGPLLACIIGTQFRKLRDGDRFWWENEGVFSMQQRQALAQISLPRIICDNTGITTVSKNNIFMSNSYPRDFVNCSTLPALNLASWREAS
T1 sequence (P05164 165-278 limits assumed): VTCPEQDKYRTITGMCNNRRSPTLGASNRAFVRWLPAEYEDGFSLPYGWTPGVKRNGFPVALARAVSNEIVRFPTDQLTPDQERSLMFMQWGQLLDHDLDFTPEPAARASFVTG

Structure (SMILES) | inhibition of HOCl production in dHL-60 cells [1] | IC50 ([2]; 10 nM MPO, 140 mM NaCl, pH 7.4) [µM] | inhibition at 20 µM ([2]; 20 μM compound, 10 nM MPO, 140 mM NaCl, 5 mM taurine, 40 μM H2O2, pH 7.4, read-out: % Inhibition (at 20 μM) Chlorinating) [%] | inhibition at 20 µM ([2]; supplementary csv copy of Table 1, read-out: % Inhibition (Chlorinating)) [%] | IC50 [3] [µM] | inhibition of MSU-induced NETosis [4] | inhibition of HOCl production in peripheral blood neutrophils [5] | inhibition at 20 µM ([6]; 20 μM compound, 100 pM MPO, 30 μM AmplexRed, 2 μM H2O2, pH 7.4, read-out: % Inhibition (at 20 μM) Peroxidatic) [%] | inhibition at 20 µM ([6]; supplementary csv copy of Table 1, read-out: % Inhibition (Peroxidatic)) [%] | reduction of paw edema (time-dependent AUC) vs VEH + MSU [7] [%] | effect on paw edema over time [7] | effect on IL-6 levels in hind paw tissue [8] | decrease in IL-1β levels in hind paw tissue [9] | inhibition of edema vs VEH + MSU ([10]; 34 mg/kg po) | reduction in total peroxidase activity in hind paw tissue [11] | inhibition of edema vs VEH + MSU ([10]; 30 mg/kg, positive control of the oral experiment (Figure 8 legend: i.p.)) [%]
CCCc1cc(=O)[nH]c(=S)[nH]1 [PTU, propylthiouracil, reference compound] | most effective | 5.25 | 92.3 ± 11.6 | 92.3 ± 11.6 | 3.38 | strongly inhibited | most effective | 94.1 ± 26.4 | 94.1 ± 26.4 | – | – | – | – | – | – | –
CCc1c(O)[nH]c2nc3ccccc3n2c1=O [ZINC9089086] | – | – | – | – | – | – | – | – | – | 93.4 | inhibited paw edema at all of the tested doses | unable to decrease | unable to decrease | no significant inhibition | unable to decrease | –
Cc1cccc(Nc2ccccc2C(=O)O)c1C [mefenamic acid, reference compound] | – | – | – | – | – | – | – | – | – | 91.1 | prevented paw edema for up to 4 h | unable to decrease | unable to decrease | – | unable to decrease | 77.3

— paper PMC11284790, “Targeting Myeloperoxidase Ameliorates Gouty Arthritis: A Virtual Screening Success Story” (Journal of Medicinal Chemistry, 2024)
